In patent EP1018003B1, “MODULATORS OF DNA CYTOSINE-5 METHYLTRANSFERASE AND METHODS FOR USE THEREOF” (The Regents of the University of California, priority 1997, dated 1999):

B1: DCMTase (Mus musculus) (protein)
chain: MPARTAPARVPALASPAGSLPDHVRRRLKDLERDGLTEKECVREKLNLLHEFLQTEIKSQLCDLETKLHKEELSEEGYLAKVKSLLNKDLSLENGTHTLTQKANGCPANGSRPTWRAEMADSNRSPRSRPKPRGPRRSKSDSDTLSVETSPSSVATRRTTRQTTITAHFTKGPTKRKPKEESEEGNSAESAAEERDQDKKRRVVDTESGAAAAVEKLEEVTAGTQLGPEEPCEQEDDNRSLRRHTRELSLRRKSKEDPDREARPETHLDEDEDGKKDKRSSRPRSQPRDPAAKRRPKEAEPEQVAPETPEDRDEDEREEKRRKTTRKKLESHTVPVQSRSERKAAQSKSVIPKINSPKCPECGQHLDDPNLKYQQHPEDAVDEPQMLTSEKLSIYDSTSTWFDTYEDSPMHRFTSFSVYCSRGHLCPVDTGLIEKNVELYFSGCAKAIHDENPSMEGGINGKNLGPINQWWLSGFDGGEKVLIGFSTAFAEYILMEPSKEYEPIFGLMQEKIYISKIVVEFLQNNPDAVYEDLINKIETTVPPSTINVNRFTEDSLLRHAQFVVSQVESYDEAKDDDETPIFLSPCMRALIHLAGVSLGQRRATRRVMGATKEKDKAPTKATTTKLVYQIFDTFFSEQIEKYDKEDKENAMKRRRCGVCEVCQQPECGKCKACKDMVKFGGTGRSKQACLKRRCPNLAVKEADDDEEADDDVSEMPSPKKLHQGKKKKQNKDRISWLGQPMKIEENRTYYQKVSIDEEMLEVGDCVSVIPDDSSKPLYLARVTALWEDKNGQMMFHAHWFCAGTDTVLGATSDPLELFLVGECENMQLSYIHSKVKVIYKAPSENWAMEGGTDPETTLPGAEDGKTYFFQLWYNQEYARFESPPKTQPTEDNKHKFCLSCIRLAELRQKEMPKVLEQIEEVDGRVYCSSITKNGVVYRLGDSVYLPPEAFTFNIKVASPVKRPKKDPVNETLYPEHYRKYSDYIKGSNLDAPEPYRIGRIKEIHCGKKKGKVNEADIKLRLYKFYRPENTHRSYNGSYHTDINMLYWSDEEAVVNFSDVQGRCTVEYGEDLLESIQDYSQGGPDRFYFLEAYNSKTKNFEDPPNHARSPGNKGKGKGKGKGKGKHQVSEPKEPEAAIKLPKLRTLDVFSGCGGLSEGFHQAGISETLWAIEMWDPAAQAFRLNNPGTTVFTEDCNVLLKLVMAGEVTNSLGQRLPQKGDVEMLCGGPPCQGFSGMNRFNSRTYSKFKNSLVVSFLSYCDYYRPRFFLLENVRNFVSYRRSMVLKLTLRCLVRMGYQCTFGVLQAGQYGVAQTRRRAIILAAAPGEKLPLFPEPLHVFAPRACQLSVVVDDKKFVSNITRLSSGPFRTITVRDTMSDLPEIQNGASNSEIPYNGEPLSWFQRQLRGSHYQPILRDHICKDMSPLVAARMRHIPLFPGSDWRDLPNIQVRLGDGVIAHKLQYTFHDVKNGYSSTGALRGVCSCAEGKACDPESRQFSTLIPWCLPHTGNRHNHWAGLYGRLEWDGFFSTTVTNPEPMGKQGRVLHPEQHRVVSVRECARSQGFPDSYRFFGNILDRHRQVGNAVPPPLAKAIGLEIKLCLLSSARESASAAVKAKEEAATKD

Key:
DCMTase = molecular target: T1, DCMTase (Mus musculus, UniProt P13864); test: Steady-state kinetic assays (methyl transfer from tritiated AdoMet to DNA); format: biochemical; set-up: key: C, competitive; NC, noncompetitive; UC, uncompetitive inhibition; details: product inhibition
T1 construct: a highly homogeneous, unproteolyzed preparation of DCMTase from mouse erythroleukemia cells (MEL); endogenous in cells; host or cells: mouse erythroleukemia (MEL) cells; endogenous enzyme purified per Xu et al. 1995
Procedure: Single-stranded DNA was heated to 90 °C and quick cooled on ice, prior to initiation of the reaction. Freeze-thawed DNA produced equivalent results. Incubations were at 37 °C for 60 minutes. […] The reaction was stopped after 60 minutes by transferring 20 μL of the reaction onto a DE 81 filter paper that was processed as described (Flynn et al., 1996). The radioactivity above the background, determined from assays without added poly(dI·dC:dI·dC), was converted to initial velocities and expressed as picomoles of methyl groups transferred to poly(dI·dC:dI·dC) per hour and plotted in double reciprocal form. […] Incubations were at 37 °C for 60 minutes. […] The GC-box b concentrations were: diamonds, 0; circles, 0.75 μM; triangles, 1.5 μM; squares, 5.0 μM. Incubations were at 37 °C for 60 minutes. […] Incubations were at 37 °C for 60 minutes. […] Incubations were at 37 °C for 60 minutes. […] The AdoHcy concentrations were: squares, 0; diamonds, 0.75 μM; circles, 1.5 μM; triangles, 3.0 μM; notched squares, 6.0 μM. Incubations were at 37 °C for 60 minutes. […] Incubations were at 37 °C for 60 minutes. […] The AdoHcy concentrations were: squares, 0; diamonds, 15 μM; circles, 30 μM. […] The standard errors associated with fitted parameters and graphical analysis of the experimental data scattered around the calculated best fit lines were also considered in making an assignment.

[1] = substrate: C[S+](CC[C@H](N)C(=O)O)C[C@H]1O[C@@H](n2cnc3c(N)ncnc32)[C@H](O)[C@@H]1O; test: purified protein, by the assay type; details: other: true Michaelis constant, equation 2 (sequential mechanism); 20 nM DCMTase; pH 8.0

Row | Molecule | Type of Inhibition (DCMTase; varied substrate AdoMet, fixed substrate IC) | Type of Inhibition (DCMTase; varied substrate IC, fixed substrate AdoMet) | Km [1] [µM]
1 | Nc1ncnc2c1ncn2[C@@H]1O[C@H](CSCC[C@H](N)C(=O)O)[C@@H](O)[C@H]1O [AdoHcy, S-adenosyl-L-homocysteine] | C | NC/UC | –
2 | B1 | – | – | 1.4 ± 0.2
